The subject of assay [1] is Pyricularia oryzae. Nature of the assay: Fungicidal activity against Magnaporthe oryzae in 7 days old young rice seedlings compound sprayed 1 day after inoculation assessed as efficacy against blast disease measured as lesion level at 200 ppm measured after 7 days of inoculation. The assay is classed as functional.
For assay [2], the system named is Pyricularia oryzae. Nature of the assay: Fungicidal activity against Magnaporthe oryzae in 7 days old young rice seedlings compound sprayed 1 day after inoculation assessed as efficacy against blast disease measured as lesion level at 50 ppm measured after 7 days of inoculation. The assay is classed as functional.

`CC(NC(=O)C1(C(C)C)CC1(Cl)Cl)c1ccc(Cl)cc1` (stereo not drawn): in the assay on Pyricularia oryzae [1], the Efficacy turned out to be 0%.
For the compound `CC1(C)C(C(=O)O)C1(Cl)Cl` (stereo not drawn), the Efficacy in the assay with Pyricularia oryzae [1] was under 5%.
In the case of `CCOC(=O)C1C(C)(C)C1(Cl)Cl` (stereo not drawn), the Efficacy with Pyricularia oryzae [1] is under 5%.
`CC1(C)C(C(=O)Oc2ccccc2)C1(Cl)Cl` (stereo not drawn): in the assay with Pyricularia oryzae [1], the Efficacy is reported as under 20%.
Still for that read-out and setting: the figure for `CC1(C)C(Cl)(Cl)C1(C)C(=O)O` (stereo not drawn) is under 20%.
For the compound `CCC1(CC)C(C(=O)O)C1(Cl)Cl` (stereo not drawn), the Efficacy with Pyricularia oryzae [1] is reported as under 30%.
The same measure, in the same setting: in the case of `CC1(C)C(C#N)C1(Cl)Cl` (stereo not drawn) it was under 30%; in that of `CC1(C)C(CO)C1(Cl)Cl` (stereo not drawn), under 5%; in that of `CC1(C)C(COC(=O)c2ccccc2)C1(Cl)Cl` (stereo not drawn), under 5%.
The same measure, in the same setting: the figure for `CC1(C)C(COC(=O)Nc2ccccc2)C1(Cl)Cl` (stereo not drawn) is under 5%.
Still for that read-out and setting: the figure for `CC1(C)C(C(N)=O)C1(Cl)Cl` (stereo not drawn) is under 20%; for `CNC(=O)C1C(C)(C)C1(Cl)Cl` (stereo not drawn) it is under 40%.
With `CC1(C)C(C(=O)Nc2ccccc2)C1(Cl)Cl` (stereo not drawn), the Efficacy in the assay with Pyricularia oryzae [1] was over 40%.
For `CC(NC(=O)C1(C)C(C)(C)C1(Cl)Cl)c1ccccc1` (stereo not drawn), in the assay on Pyricularia oryzae [1], the Efficacy is recorded as under 5%.
The same measure, in the same setting: in the case of `CC(NC(=O)C1(C)C(C)(C)C1(Cl)Cl)c1ccc(Cl)cc1` (stereo not drawn) it was 0%.
In the case of `CC(NC(=O)C1(C)C(C)(C)C1(Cl)Cl)c1ccc(Br)cc1` (stereo not drawn), the Efficacy in the assay with Pyricularia oryzae [2] and in the assay on Pyricularia oryzae [1] was 0% throughout.
As for `CC[C@]1(C(=O)NC(C)c2ccc(Cl)cc2)[C@H](C)C1(Cl)Cl` (mixture of isomers) [CARPROPAMID], in the assay with Pyricularia oryzae [2], the Efficacy came out at 0%.
Same read-out and setting: in the case of `C[C@@H](NC(=O)C1(C)C(C)(C)C1(Cl)Cl)c1ccc(Br)cc1` (stereo in doubt; 17(Rd)) it was 0%.
For the compound `C[C@@H](NC(=O)C1(C)C(C)(C)C1(Cl)Cl)c1ccc(Br)cc1` (stereo in doubt; 17(Rl)), the Efficacy with Pyricularia oryzae [2] is under 5%.
As to `C[C@H](NC(=O)C1(C)C(C)(C)C1(Cl)Cl)c1ccc(Br)cc1` (stereo in doubt; 17(Sl)), the Efficacy with Pyricularia oryzae [2] is recorded as under 20%.
Take `CC[C@]1(C(=O)NC(C)c2ccc(Cl)cc2)[C@H](C)C1(Cl)Cl` (stereo partly drawn) [CARPROPAMID]: the Efficacy in the assay on Pyricularia oryzae [1] came to 0%.
As for `CC[C@]1(C(=O)N[C@H](C)c2ccc(Cl)cc2)[C@H](C)C1(Cl)Cl` [trans-Carpropamid], in the assay with Pyricularia oryzae [2], the Efficacy was determined as 0%.

For the origin of these results see ChEMBL document CHEMBL3044822, “Carpropamid, a New Fungicide for Rice Blast Control” (1998).
